In US20050215551A1, “1-[2H-1-benzopyran-2-one-8-yl]- piperazine derivatives for the treatment of movement disorders” (SOLVAY PHARMACEUTICALS B.V., priority 2004, published 2005):

How the values were obtained:
[1] = biological target: 5-HT6 (Homo sapiens, UniProt P50406); test: Receptor binding 5-HT6; conditions: radioligand [3H]-LSD, read-out: Ki(nM) Compound 1
Protocol: (§1) Receptor binding data were obtained by CEREP (128, rue Danton, 92500 Rueil-Malmaison, France) or at Solvay Pharmaceuticals B.V., using well documented standard procedures. Affinity for 5-HT1A receptors for instance, was determined by testing the ability of the compounds of the invention to displace [^3H]-2-(di-n-propylamino)-8-hydroxytetralin ([^3H]-8-OH-DPAT) from its specific binding sites in rat frontal cortex homogenates. This test is based on the method described by Gozlan et al. (Nature, 305, (1983), pages 140-142).
(§2) The binding data collected in the table below were either obtained by CEREP (128, rue Danton, 92500 Rueil-Malmaison, France) or at Solvay Pharmaceuticals B.V., using well documented standard procedures.

[2] = biological target: nicotine (Rattus norvegicus, UniProt P09483+P12390); test: Receptor binding nicotine; conditions: radioligand [3H]-cytisine, read-out: Ki(nM) Compound 1
Protocol: as §1, §2

[3] = biological target: angiotensin-AT2 (Homo sapiens, UniProt P50052); test: Receptor binding angiotensin-AT2; conditions: radioligand [125I]-CPG 42112A, read-out: Ki(nM) Compound 1
Sequence of angiotensin-AT2 (P50052 whole entry): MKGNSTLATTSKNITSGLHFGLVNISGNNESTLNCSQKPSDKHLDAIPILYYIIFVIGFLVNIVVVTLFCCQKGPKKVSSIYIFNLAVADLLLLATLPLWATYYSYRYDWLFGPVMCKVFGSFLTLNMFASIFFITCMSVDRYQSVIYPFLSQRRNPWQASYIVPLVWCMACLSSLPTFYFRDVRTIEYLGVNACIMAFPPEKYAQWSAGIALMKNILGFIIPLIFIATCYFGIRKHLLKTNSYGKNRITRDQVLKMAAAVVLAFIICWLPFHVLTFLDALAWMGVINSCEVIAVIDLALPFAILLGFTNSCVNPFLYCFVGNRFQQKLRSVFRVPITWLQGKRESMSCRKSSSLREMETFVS
Protocol: as §1, §2

[4] = biological target: Ca++-channel (Rattus norvegicus, UniProt Q02294); test: biochemical; format: binding
[5] = biological target: Muscarine-M1 (Homo sapiens, UniProt P11229); test: Receptor binding Muscarine-M1; conditions: radioligand [3H]-pirenzepine, read-out: Ki(nM) Compound 1
Protocol: as §1, §2

[6] = test system: BDNF; test: Induction of growth factors: BDNF RNA in brain areas by quantitative PCR; format: in vivo; conditions: 3 mg/kg p.o. once daily, 3 weeks
Protocol: Compounds of the invention (3 mg/kg, p.o.) or vehicle are administered once daily during a period of 3 weeks (n=8 animals per treatment group). 24 hours after the last dose the animals are sacrificed (using CO2/O2 anesthesia), the brains are removed and the dissected. RNA is extracted from the individual brain samples and induction of the growth factors BDNF and GDNF is determined by quantitative PCR. Total RNA is isolated with the Trizol method (Invitrogen) from the brain pieces. cDNA is made starting with 2 μg of total RNA (pretreated for 30 min with DNAse (Ambion) in first strand buffer) using the reverse transcriptase Superscript II (Invitrogen). Quantification of […] by real time PCR makes use of the observation that the early cycles of PCR are characterized by an exponential increase in target amplification. The accumulation of PCR product is measured using Sybergreen II. Primers are designed using the software package Primer Express (Applied Biosystems). Expression levels of the housekeeping genes ornithine decarboxylase (ODC_ex8) and alpha tubulin (TUBA) used for normalization and as control for good cDNA synthesis.

[7] = biological target: cannabinoid-CB1 (Homo sapiens, UniProt P21554); test: Receptor binding cannabinoid-CB1; conditions: radioligand [3H]-WIN 55,212-2, read-out: Ki(nM) Compound 1
Sequence of cannabinoid-CB1 (P21554 whole entry): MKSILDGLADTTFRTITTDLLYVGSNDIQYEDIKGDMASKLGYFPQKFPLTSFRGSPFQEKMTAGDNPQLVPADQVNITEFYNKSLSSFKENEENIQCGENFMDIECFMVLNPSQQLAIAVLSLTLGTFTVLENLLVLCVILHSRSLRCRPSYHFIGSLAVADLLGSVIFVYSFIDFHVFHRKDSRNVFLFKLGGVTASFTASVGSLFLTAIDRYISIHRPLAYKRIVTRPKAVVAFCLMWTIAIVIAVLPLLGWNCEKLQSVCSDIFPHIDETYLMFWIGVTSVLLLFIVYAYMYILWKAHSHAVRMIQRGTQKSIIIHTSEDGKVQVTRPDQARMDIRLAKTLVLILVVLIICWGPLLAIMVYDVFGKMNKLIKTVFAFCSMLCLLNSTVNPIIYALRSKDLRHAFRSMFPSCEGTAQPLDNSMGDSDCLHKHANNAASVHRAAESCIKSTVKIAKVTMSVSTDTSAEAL
Protocol: as §1, §2

[8] = biological target: nociceptin (ORL1) (Homo sapiens, UniProt P41146); test: Receptor binding nociceptin (ORL1); conditions: radioligand [3H]-nociceptine, read-out: Ki(nM) Compound 1
Sequence of nociceptin (ORL1) (P41146 whole entry): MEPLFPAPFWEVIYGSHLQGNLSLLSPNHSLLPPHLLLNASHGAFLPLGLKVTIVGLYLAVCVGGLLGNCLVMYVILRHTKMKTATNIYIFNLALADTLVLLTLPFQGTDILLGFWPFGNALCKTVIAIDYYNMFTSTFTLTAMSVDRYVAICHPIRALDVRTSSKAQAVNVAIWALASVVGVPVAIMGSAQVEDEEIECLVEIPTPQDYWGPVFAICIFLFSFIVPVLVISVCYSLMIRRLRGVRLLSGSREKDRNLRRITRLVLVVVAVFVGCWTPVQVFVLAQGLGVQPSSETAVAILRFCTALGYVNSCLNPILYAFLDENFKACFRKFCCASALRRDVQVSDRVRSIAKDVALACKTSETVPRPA
Protocol: as §1, §2

[9] = biological target: 5-HTreuptake (Homo sapiens, UniProt P31645); test: Binding 5-HT reuptake; conditions: radioligand [3H]-paroxetine, read-out: Ki(nM) Compound 1
Sequence of 5-HTreuptake (P31645 whole entry): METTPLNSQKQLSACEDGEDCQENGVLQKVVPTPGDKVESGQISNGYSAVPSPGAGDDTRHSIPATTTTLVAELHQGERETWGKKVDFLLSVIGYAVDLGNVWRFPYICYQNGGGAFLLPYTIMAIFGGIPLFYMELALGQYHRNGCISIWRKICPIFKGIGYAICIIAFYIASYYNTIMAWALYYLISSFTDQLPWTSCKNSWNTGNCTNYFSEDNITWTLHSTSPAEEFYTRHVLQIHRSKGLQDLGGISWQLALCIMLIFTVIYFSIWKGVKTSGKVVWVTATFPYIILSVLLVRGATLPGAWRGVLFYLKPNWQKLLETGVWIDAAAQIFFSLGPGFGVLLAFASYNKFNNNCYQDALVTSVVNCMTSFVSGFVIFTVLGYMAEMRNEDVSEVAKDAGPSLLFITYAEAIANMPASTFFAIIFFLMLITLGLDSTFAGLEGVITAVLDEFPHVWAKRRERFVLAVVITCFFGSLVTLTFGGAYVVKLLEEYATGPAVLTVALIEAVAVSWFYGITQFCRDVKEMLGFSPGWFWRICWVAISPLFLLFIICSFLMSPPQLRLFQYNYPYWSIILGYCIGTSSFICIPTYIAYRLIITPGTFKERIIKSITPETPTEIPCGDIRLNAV
Protocol: as §1, §2

[10] = biological target: Endothelin-ETB (Homo sapiens, UniProt P24530); test: Receptor binding Endothelin-ETB; conditions: radioligand [125I]-endothelin-1, read-out: Ki(nM) Compound 1
Protocol: as §1, §2

[11] = biological target: sigma-SG1 (Cavia porcellus, UniProt Q60492); test: Receptor binding sigma-SG1; conditions: radioligand [3H]-pentazocone; guinea pig; read-out: Ki(nM) Compound 1
Sequence of sigma-SG1 (Q60492 whole entry): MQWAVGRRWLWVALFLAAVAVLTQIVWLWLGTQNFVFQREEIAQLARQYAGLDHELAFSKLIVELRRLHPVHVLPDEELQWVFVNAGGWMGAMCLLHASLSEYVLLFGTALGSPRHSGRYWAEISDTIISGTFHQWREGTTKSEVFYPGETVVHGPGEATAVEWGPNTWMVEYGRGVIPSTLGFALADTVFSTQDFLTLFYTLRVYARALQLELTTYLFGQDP
Protocol: as §1, §2

[12] = biological target: PACAP (Rattus norvegicus, UniProt P32215); test: Receptor binding PACAP; conditions: radioligand [125I]-PACAP 1-27, read-out: Ki(nM) Compound 1
Protocol: as §1, §2

[13] = biological target: Histamine-H1 (Homo sapiens, UniProt P35367); test: Receptor binding Histamine-H1; conditions: radioligand [3H]-pyrilamine, read-out: Ki(nM) Compound 1
Protocol: as §1, §2

[14] = biological target: 5-HT4 (Homo sapiens, UniProt Q13639); test: Receptor binding 5-HT4; conditions: radioligand [3H]-GR 113808, read-out: Ki(nM) Compound 1
Sequence of 5-HT4 (Q13639 whole entry): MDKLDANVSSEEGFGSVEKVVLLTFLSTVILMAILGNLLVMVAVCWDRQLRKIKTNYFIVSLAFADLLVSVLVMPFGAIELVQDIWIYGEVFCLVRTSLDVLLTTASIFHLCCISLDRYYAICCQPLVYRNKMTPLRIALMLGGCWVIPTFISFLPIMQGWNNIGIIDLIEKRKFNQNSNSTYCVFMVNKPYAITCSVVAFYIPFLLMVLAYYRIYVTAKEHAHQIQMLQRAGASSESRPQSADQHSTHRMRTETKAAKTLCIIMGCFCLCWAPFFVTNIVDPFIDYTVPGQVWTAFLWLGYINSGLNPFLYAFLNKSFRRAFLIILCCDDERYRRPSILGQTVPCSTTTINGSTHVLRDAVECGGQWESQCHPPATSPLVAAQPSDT
Protocol: as §1, §2

[15] = biological target: CCKA (Homo sapiens, UniProt P32238); test: Receptor binding CCKA; conditions: radioligand [3H]-devazepide, read-out: Ki(nM) Compound 1
Sequence of CCKA (P32238 whole entry): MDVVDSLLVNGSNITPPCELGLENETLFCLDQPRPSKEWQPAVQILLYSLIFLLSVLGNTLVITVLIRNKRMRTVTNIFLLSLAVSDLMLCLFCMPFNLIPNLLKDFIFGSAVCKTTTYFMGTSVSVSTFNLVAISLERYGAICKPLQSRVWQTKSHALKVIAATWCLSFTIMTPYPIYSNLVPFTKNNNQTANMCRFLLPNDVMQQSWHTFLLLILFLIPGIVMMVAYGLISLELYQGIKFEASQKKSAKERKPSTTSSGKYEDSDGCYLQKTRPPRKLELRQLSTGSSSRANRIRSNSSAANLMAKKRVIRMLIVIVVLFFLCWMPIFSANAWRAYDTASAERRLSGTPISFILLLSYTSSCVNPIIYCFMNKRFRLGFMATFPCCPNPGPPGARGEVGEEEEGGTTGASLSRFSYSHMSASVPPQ
Protocol: as §1, §2

[16] = biological target: LTB4 (Cavia porcellus, UniProt H0VYV8); test: Receptor binding LTB4; conditions: radioligand [3H]-LTB4; guinea pig; read-out: Ki(nM) Compound 1
Protocol: as §1, §2

[17] = biological target: sigma-SG2 (Rattus norvegicus, UniProt Q5U3Y7); test: Receptor binding sigma-SG2; conditions: radioligand [3H]-DTG, read-out: Ki(nM) Compound 1
Sequence of sigma-SG2 (Q5U3Y7 whole entry): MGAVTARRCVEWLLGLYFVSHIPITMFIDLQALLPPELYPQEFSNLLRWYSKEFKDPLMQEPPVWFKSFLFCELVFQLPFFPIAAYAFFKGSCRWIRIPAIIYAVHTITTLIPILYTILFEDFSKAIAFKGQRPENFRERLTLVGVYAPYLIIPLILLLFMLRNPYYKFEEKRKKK
Protocol: as §1, §2

[18] = biological target: Histamine-H3 (Rattus norvegicus, UniProt Q9QYN8); test: Receptor binding Histamine-H3; conditions: radioligand [3H]-α-methylhistamine, read-out: Ki(nM) Compound 1
Sequence of Histamine-H3 (Q9QYN8 whole entry): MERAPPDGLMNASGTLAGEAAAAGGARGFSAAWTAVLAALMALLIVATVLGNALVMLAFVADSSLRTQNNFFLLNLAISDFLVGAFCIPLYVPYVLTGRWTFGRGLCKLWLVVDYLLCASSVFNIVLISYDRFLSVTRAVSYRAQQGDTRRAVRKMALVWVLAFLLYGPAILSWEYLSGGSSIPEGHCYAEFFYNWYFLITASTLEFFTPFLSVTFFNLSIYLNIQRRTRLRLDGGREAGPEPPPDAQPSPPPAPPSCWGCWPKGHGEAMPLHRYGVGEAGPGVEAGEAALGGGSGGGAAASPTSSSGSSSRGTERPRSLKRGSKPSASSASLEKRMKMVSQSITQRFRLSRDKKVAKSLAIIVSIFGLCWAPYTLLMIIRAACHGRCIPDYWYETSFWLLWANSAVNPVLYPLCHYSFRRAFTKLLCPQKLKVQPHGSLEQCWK
Protocol: as §1, §2

[19] = biological target: GABAB (Rattus norvegicus, UniProt Q9Z0U4); test: Receptor binding GABAB; conditions: read-out: Ki(nM) Compound 1
Protocol: as §1, §2

[20] = biological target: Adenosine-A2A (Homo sapiens, UniProt P29274); test: Receptor binding Adenosine-A2A; conditions: radioligand [3H]-CGS 21680, read-out: Ki(nM) Compound 1
Sequence of Adenosine-A2A (P29274 whole entry): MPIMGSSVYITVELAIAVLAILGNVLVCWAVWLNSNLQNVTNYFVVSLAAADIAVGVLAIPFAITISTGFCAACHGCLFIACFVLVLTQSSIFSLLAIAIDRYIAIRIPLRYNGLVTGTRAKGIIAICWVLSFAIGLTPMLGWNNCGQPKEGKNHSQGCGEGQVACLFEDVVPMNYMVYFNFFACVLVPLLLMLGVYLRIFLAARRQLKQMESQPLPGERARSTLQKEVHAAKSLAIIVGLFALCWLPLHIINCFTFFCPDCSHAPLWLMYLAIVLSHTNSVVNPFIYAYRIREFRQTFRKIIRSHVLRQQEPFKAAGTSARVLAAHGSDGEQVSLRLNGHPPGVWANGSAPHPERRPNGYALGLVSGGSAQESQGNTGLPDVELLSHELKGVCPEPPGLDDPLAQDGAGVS
Protocol: as §1, §2

[21] = biological target: Neurokinin-NK1 (Homo sapiens, UniProt P25103); test: Receptor binding Neurokinin-NK1; conditions: radioligand [3H]-substance P, read-out: Ki(nM) Compound 1
Sequence of Neurokinin-NK1 (P25103 whole entry): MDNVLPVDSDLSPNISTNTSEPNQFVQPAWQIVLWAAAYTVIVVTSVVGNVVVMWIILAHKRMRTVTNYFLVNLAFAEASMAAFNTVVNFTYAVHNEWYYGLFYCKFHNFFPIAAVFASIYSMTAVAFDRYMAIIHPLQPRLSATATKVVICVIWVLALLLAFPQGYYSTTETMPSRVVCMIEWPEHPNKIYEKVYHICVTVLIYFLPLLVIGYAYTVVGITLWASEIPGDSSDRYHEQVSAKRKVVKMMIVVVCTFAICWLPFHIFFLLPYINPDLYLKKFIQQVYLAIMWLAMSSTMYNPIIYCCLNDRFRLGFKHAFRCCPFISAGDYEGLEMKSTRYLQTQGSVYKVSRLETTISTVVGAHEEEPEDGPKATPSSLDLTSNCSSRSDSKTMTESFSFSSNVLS
Protocol: as §1, §2

[22] = biological target: β3-adrenergic (Homo sapiens, UniProt P13945); test: Receptor binding β3-adrenergic; conditions: radioligand [125I]-iodocyanopindolol, read-out: Ki(nM) Compound 1
Sequence of β3-adrenergic (P13945 whole entry): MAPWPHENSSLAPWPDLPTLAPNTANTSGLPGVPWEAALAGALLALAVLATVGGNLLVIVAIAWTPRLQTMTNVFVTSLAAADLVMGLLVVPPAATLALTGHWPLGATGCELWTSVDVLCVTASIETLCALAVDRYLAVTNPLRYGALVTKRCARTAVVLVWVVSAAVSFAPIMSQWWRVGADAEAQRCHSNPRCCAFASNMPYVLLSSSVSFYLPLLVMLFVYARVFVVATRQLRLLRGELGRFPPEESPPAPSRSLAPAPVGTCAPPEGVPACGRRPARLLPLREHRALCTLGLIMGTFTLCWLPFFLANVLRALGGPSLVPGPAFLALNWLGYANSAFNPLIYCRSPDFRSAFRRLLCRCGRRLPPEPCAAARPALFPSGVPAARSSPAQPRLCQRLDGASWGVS
Protocol: as §1, §2

[23] = biological target: Dopamine-D2 (Homo sapiens, UniProt P14416); test: Receptor binding Dopamine-D2; conditions: radioligand [3H]-spiperone, read-out: Ki(nM) Compound 1
Protocol: as §1, §2

With `Nc1cc2cccc(N3CCNCC3)c2oc1=O` [Compound 1, 3-amino-8-(1-piperazinyl)-2H-1-benzopyran-2-one] as the molecule, how does the Ki [1] read?
The Ki was greater than 1000 nM.

And the Ki [2]?
The Ki was greater than 10000 nM.

What about the Ki [3] of the same molecule?
The Ki was greater than 1000 nM.

What about the Ki [4] of the same molecule?
The Ki was greater than 1000 nM.

And the Ki [5]?
Its Ki is greater than 1000 nM.

What about the “BDNF RNA, fold increase compared to vehicle treatment” value (“BDNF RNA, fold increase” below) ([6]; hippocampus) of the same molecule?
The value was 2.4 fold.

And the “BDNF RNA, fold increase” value ([6]; nucleus accumbens)?
Its value is 5.1 fold.

What about the “BDNF RNA, fold increase” value ([6]; prefrontal cortex) of the same molecule?
Its value is 2.1 fold.

What about the “BDNF RNA, fold increase” value ([6]; striatum) of the same molecule?
The value was 1.8 fold.

And the “BDNF RNA, fold increase” value ([6]; thalamus)?
Its value is 2.3 fold.

And the Ki [7]?
The Ki was greater than 10000 nM.

What about the Ki [8] of the same molecule?
The Ki was greater than 1000 nM.

What about the Ki [9] of the same molecule?
The Ki was greater than 1000 nM.

What about the Ki [10] of the same molecule?
Its Ki is greater than 1000 nM.

What about the Ki [11] of the same molecule?
Its Ki is greater than 1000 nM.

And the Ki [12]?
Its Ki is greater than 1000 nM.

What about the Ki [13] of the same molecule?
The Ki was greater than 1000 nM.

What about the Ki [14] of the same molecule?
Its Ki is greater than 1000 nM.

What about the Ki [15] of the same molecule?
The Ki was greater than 1000 nM.

What about the Ki [16] of the same molecule?
The Ki was greater than 10000 nM.

What about the Ki [17] of the same molecule?
The Ki was greater than 1000 nM.

What about the Ki [18] of the same molecule?
Its Ki is greater than 10000 nM.

What about the Ki [19] of the same molecule?
Its Ki is greater than 1000 nM.

What about the Ki [20] of the same molecule?
The Ki was greater than 1000 nM.

What about the Ki [21] of the same molecule?
Its Ki is greater than 1000 nM.

What about the Ki [22] of the same molecule?
The Ki was greater than 1000 nM.

What about the Ki [23] of the same molecule?
The Ki was greater than 1000 nM.
